Laboratory results published in ChEMBL document CHEMBL1130130, “New approaches to antiglaucoma therapy” (1997).

System: Oryctolagus cuniculus
Assay: Compound was evaluated for ocular hypotensive effects (intraocular pressure, IOP) by administering 0.5% of the drug twice daily
Type: functional, Eye

## CC(C)(C)NC[C@H](O)COc1nsnc1N1CCOCC1 [TIMOLOL]
  Activity: 21%
